Results taken from US10023532B2, “Alkyl phenyl sulfide derivative and pest control agent” (KUMIAI CHEMICAL INDUSTRY CO., LTD., priority 2012, dated 2018).

Key:
[1] = tested on: Tetranychus urticae Koch (two spotted spider mite); experiment: Control effect test for Tetranychus urticae Koch (two spotted spider mite); type: in vivo; conditions: active ingredient concentration 4 ppm, soybean seedlings with 35 female adults immersed, 25° C., after 13 days, no replication; for pest or weed control at 4 ppm: Tetranychus urticae, 312 h
Description: A wettable powder prepared based on Formulation Example 2 was diluted with water into an active ingredient concentration of 4 ppm. In the solution were immersed soybean seedlings which had been inoculated with 35 female adults of two spotted spider mite. The soybean seedlings were dried in the air and placed in a thermostat of 25° C. After 13 days, the number of living female adults was examined and the control value of the active ingredient was determined using the calculation formula of the following Mathematical Expression 1. This test was conducted with no replication. Control value=100−[(number of living female adults after 13 days, in treated seedlings)/(number of living female adults after 13 days, in non-treated seedlings)]×100 [Mathematical Expression 1]
Tests similar to the above were conducted using, as comparative compounds, compound Nos. 22 and 23 described in JP-A-1975-29744, compound Nos. 3, 4, 5, 6 described in JP-A-1976-19121 and compound Nos. 18, 19 and 36 described in JP-A-1988-41451. The structures of these comparative compounds are as follows.

[2] = tested on: Nilaparvata lugens Stál (brown rice planthopper); experiment: Insecticidal activity test for Nilaparvata lugens Stál (brown rice planthopper); type: in vivo; conditions: active ingredient concentration 100 ppm, sprouting unhulled rice immersed, 10 3-instar larvae, 25° C., after 6 days, no replication; for mortality at 100 ppm: Nilaparvata lugens, 144 h
Description: A wettable powder prepared based on Formulation Example 2 was diluted with water into an active ingredient concentration of 100 ppm. In the solution was immersed sprouting unhulled rice. They were placed in a 60-ml plastic cup. Thereinto were released 10 3-instar larvae of brown rice planthopper. The cup was covered with a lid and placed in a thermostat of 25° C. After 6 days, the number of living insects was counted and the mortality of insect was determined from the calculation formula of the following Mathematical Expression 2. This test was conducted with no replication. Mortality (%)=100−[(number of living insects after 6 days)/(number of tested insects)]×100 [Mathematical Expression 2]
As in the case of Test Example 1, tests similar to the above were conducted using, as comparative compounds, compound Nos. 22 and 23 described in JP-A-1975-29744, compound Nos. 4, 5, 6 described in JP-A-1976-19121 and compound Nos. 18, 19 and 36 described in JP-A-1988-41451.

## [O-][S+](CC(F)(F)F)c1cc(OCCc2ccc(C(F)(F)F)cc2)c(Cl)cc1Cl (stereo not shown) [A-0767, 2-(4-trifluoromethylphenyl)ethyl-[2,4-dichloro-5-(2,2,2-trifluoroethylsulfinyl)phenyl] ether]
[1]
  pest or weed control at 4 ppm: ≥ 90%

## Cc1cc(F)c(OCCCCC(C)(C)C)cc1[S+]([O-])CC(F)(F)F (stereo not shown) [A-0086, 5,5-dimethylhexyl-[2-fluoro-4-methyl-5-(2,2,2-trifluoroethylsulfinyl)phenyl] ether]
[1]
  pest or weed control at 4 ppm: ≥ 90%
[2]
  mortality at 100 ppm: ≥ 90%

## [O-][S+](CC(F)(F)F)c1cc(OCCCCCSC(F)(F)F)c(F)cc1Cl (racemic) [A-0434, 5-trifluoromethylthiopentyl-[4-chloro-2-fluoro-5-(2,2,2-trifluoroethylsulfinyl)phenyl] ether]
[1]
  pest or weed control at 4 ppm: ≥ 90%
[2]
  mortality at 100 ppm: ≥ 90%

## C#CCOc1ccc(C)c(SCCC)c1 [compound 3]
[1]
  control value: no activity

## FC(F)(F)CSc1cc(OCCCCCCSC(F)(F)F)c(Cl)cc1Cl [A-0478, 6-trifluoromethylthiohexyl-[2,4-dichloro-5-(2,2,2-trifluoroethylthio)phenyl] ether]
[1]
  pest or weed control at 4 ppm: ≥ 90%

## Cc1cc(F)c(OCCCCC(C)(C)C)cc1SCC(F)(F)F [A-0085, 5,5-dimethylhexyl-[2-fluoro-4-methyl-5-(2,2,2-trifluoroethylthio)phenyl] ether]
[1]
  pest or weed control at 4 ppm: ≥ 90%
[2]
  mortality at 100 ppm: ≥ 90%

## CCCCCCOc1ccc(Cl)c(SCCC)c1 [compound 22]
[1]
  control value: no activity
[2]
  mortality: no activity

## C#CCOc1ccc(C)c([S+]([O-])CCC)c1 (stereo not shown) [compound 4]
[1]
  control value: no activity
[2]
  mortality: no activity

## CCCSc1cc(OCC=CCl)ccc1C [compound 5]
[1]
  control value: no activity
[2]
  mortality: no activity

## CCCSc1cc(OCc2ccc(Cl)cc2)ccc1C [compound 18]
[1]
  control value: no activity
[2]
  mortality: no activity

## Fc1cc(Cl)c(SCC(F)(F)F)cc1OCCCCCSC(F)(F)F [A-0433, 5-trifluoromethylthiopentyl-[4-chloro-2-fluoro-5-(2,2,2-trifluoroethylthio)phenyl] ether]
[2]
  mortality at 100 ppm: ≥ 90%

## Cc1ccc(OCCCCCSC(F)(F)F)cc1SCC(F)(F)F [A-0438, 5-trifluoromethylthiopentyl-[4-methyl-3-(2,2,2-trifluoroethylthio)phenyl] ether]
[1]
  pest or weed control at 4 ppm: ≥ 90%
[2]
  mortality at 100 ppm: ≥ 90%

## Cc1ccc(OCCCCCSC(F)(F)F)cc1[S+]([O-])CC(F)(F)F (stereo not shown) [A-0439, 5-trifluoromethylthiopentyl-[4-methyl-3-(2,2,2-trifluoroethylsulfinyl)phenyl] ether]
[1]
  pest or weed control at 4 ppm: ≥ 90%
[2]
  mortality at 100 ppm: ≥ 90%

## CCC[S+]([O-])c1cc(OCc2ccc(Cl)cc2)ccc1C (stereo not shown) [compound 19]
[1]
  control value: no activity
[2]
  mortality: no activity

## CCCSc1cc(OCCCSCc2ccccc2)ccc1C [compound 36]
[1]
  control value: no activity
[2]
  mortality: no activity

## CCC[S+]([O-])c1cc(OCC=CCl)ccc1C (stereo not shown) [compound 6]
[1]
  control value: no activity
[2]
  mortality: no activity

## Cc1cc(C)c([S+]([O-])CC(F)(F)F)cc1OCCc1ccc(OC(F)(F)F)cc1 (stereo not shown) [A-0783, 2-(4′-trifluoromethoxyphenyl)ethyl-[2,4-dimethyl-5-(2,2,2-trifluoroethylsulfinyl)phenyl] ether]
[1]
  pest or weed control at 4 ppm: ≥ 90%

## CCCCCCOc1ccc(Cl)c([S+]([O-])CCC)c1 (stereo not shown) [compound 23]
[1]
  control value: no activity
[2]
  mortality: no activity

## Cc1cc(C)c([S+]([O-])CC(F)(F)F)cc1OCCCCCCSC(F)(F)F (stereo not shown) [A-0481, 6-trifluoromethylthiohexyl-[2,4-dimethyl-5-(2,2,2-trifluoroethylsulfinyl)phenyl]ether]
[1]
  pest or weed control at 4 ppm: ≥ 90%

## Cc1cc(F)c(O)cc1SCC(F)(F)F [C-0001, 2-fluoro-4-methyl-5-(2,2,2-trifluoroethylthio)phenol]
[2]
  mortality at 100 ppm: ≥ 90%

## [O-][S+](CC(F)(F)F)c1cc(OCCCCCCSC(F)(F)F)c(Cl)cc1Cl (stereo not shown) [A-0479, 6-trifluoromethylthiohexyl-[2,4-dichloro-5-(2,2,2-trifluoroethylsulfinyl)phenyl] ether]
[1]
  pest or weed control at 4 ppm: ≥ 90%
